Experimental findings from ChEMBL document CHEMBL4043091, “Lead Discovery of Dual G-Quadruplex Stabilizers and Poly(ADP-ribose) Polymerases (PARPs) Inhibitors: A New Avenue in Anticancer Treatment” (J Med Chem, 2017) are described below.

Broadly, the ΔTm is the shift of the melting midpoint relative to a reference. By Kd is commonly meant the concentration at which binding is half-saturated. Higher therefore signals a looser complex. A word on the IC50: it is the concentration at which inhibition is half-maximal.

For series [1], the species on record is Homo sapiens. The series is described as follows: Binding affinity to human telomeric 23 G-quadruplex DNA assessed as change in melting temperature at 10 molequiv after 30 mins by CD spectra analysis.
Series [2] is filed under the species Homo sapiens. Nature of the series: Binding affinity to human telomeric 26 G-quadruplex DNA assessed as change in melting temperature at 10 molequiv after 30 mins by CD spectra analysis.
For series [3], the species on record is Homo sapiens. Nature of the series: Binding affinity to human telomeric 23-p G-quadruplex DNA assessed as change in melting temperature at 10 molequiv after 30 mins by CD spectra analysis.
For series [4], the species on record is Homo sapiens. Nature of the series: Binding affinity to human telomeric 23-p G-quadruplex DNA assessed as increase in melting temperature at lower concentration after 30 mins by CD spectra analysis.
The species entered for series [5] is Homo sapiens. Nature of the series: Binding affinity to human telomeric 23 G-quadruplex DNA assessed as increase in melting temperature up to 300 uM after 30 mins by CD spectra analysis.
For series [6], the species on record is Homo sapiens. The series is described as follows: Binding affinity to human telomeric 26 G-quadruplex DNA assessed as increase in melting temperature up to 300 uM after 30 mins by CD spectra analysis.
Series [7] is described as follows: Binding affinity to 12-mer duplex DNA (unknown origin) at 10 molequiv after 30 mins by CD spectra analysis.
Series [8] is described as follows: Binding affinity to human Cy5-labeled telomeric 26 G-quadruplex DNA by […] analysis.
A short description of series [9]: Binding affinity to 5'-FAM/3'-TAMRA labelled F21T G-quadruplex DNA (unknown origin) assessed as change in melting temperature at 4 uM by FRET assay.
Series [10] is filed under the species Homo sapiens. Nature of the series: Binding affinity to G-quadruplex DNA in human BJeH-LT cells at 1 uM after 24 hrs by hoechst staining-based immunofluorescence analysis. The class given is cell-based.
Series [11] deals with BJeH-LT. The series is described as follows: Induction of DNA damage in human BJeH-LT cells assessed as increase in gamma-H2AX foci formation at 1 uM after 24 hrs by hoechst staining-based immunofluorescence analysis. The series is classed as functional, cell-based.
The test system of series [12] is hTERT-BJ. The series is described as follows: Induction of DNA damage in human hTERT-BJ cells assessed as increase in gamma-H2AX foci formation at 1 uM after 24 hrs by hoechst staining-based immunofluorescence analysis. The series is classed as cell-based.
In series [13] the test system is BJeH-LT. The series is described as follows: Induction of DNA damage in human BJeH-LT cells assessed as increase in telomere's dysfunction induced foci positive nuclei at 1 uM after 24 hrs by hoechst staining-based immunofluorescence analysis. The class given is functional, cell-based.
The nature of series [14]: Binding affinity to 5'-FAM/3'-TAMRA labelled F21T G-quadruplex DNA (unknown origin) assessed as increase in melting temperature at 4 uM in presence of 5 to 10 uM 12-mer duplex DNA by FRET assay.
Series [15] concerns BJeH-LT. Nature of the series: Induction of DNA damage in human BJeH-LT cells assessed as increase in gamma-H2AX foci formation at 1 uM after 24 hrs followed by compound washout by hoechst staining-based immunofluorescence analysis. The series is classed as functional, cell-based.
For series [16], the system named is BJeH-LT. Nature of the series: Induction of DNA damage in human BJeH-LT cells assessed as increase in gamma-H2AX foci formation at >1 uM after 24 hrs by hoechst staining-based immunofluorescence analysis. The class given is functional, cell-based.
Series [17] deals with DLD-1. Nature of the series: Antiproliferative activity against human DLD1 cells harboring BRCA2 up to 2 uM after 6 days by MTT assay. The series is classed as functional, cell-based. For orientation: Formazan colour is commonly taken as a measure of viable cells.
Series [18] concerns DLD-1. Nature of the series: Antiproliferative activity against human DLD1 cells deficient BRCA2 up to 2 uM after 6 days by MTT assay. The class given is functional, cell-based.
The species entered for series [19] is Homo sapiens. Nature of the series: Binding affinity to human Cy5-labeled telomeric 26 G-quadruplex DNA at 10^-1 to 10^4 nM by […] analysis.
The species entered for series [20] is Homo sapiens. Nature of the series: Inhibition of PARP in human BJeH-LT cells assessed as reduction of Poly(ADP-ribosyl)ation at 1 uM preincubated for 16 hrs followed by [3H]NAD addition measured after 10 mins by liquid scintillation counting method. The series is classed as cell-based.
In series [21] the target is Poly [ADP-ribose] polymerase 1 (Homo sapiens, UniProt P09874). Nature of the series: Inhibition of recombinant human PARP1 expressed in Escherichia coli assessed as reduction of Poly(ADP-ribosyl)ation after 15 mins in presence of [3H]NAD+/cleaved DNA/histones by scintillation counting method.
Poly [ADP-ribose] polymerase 1, sequence (P09874 whole entry): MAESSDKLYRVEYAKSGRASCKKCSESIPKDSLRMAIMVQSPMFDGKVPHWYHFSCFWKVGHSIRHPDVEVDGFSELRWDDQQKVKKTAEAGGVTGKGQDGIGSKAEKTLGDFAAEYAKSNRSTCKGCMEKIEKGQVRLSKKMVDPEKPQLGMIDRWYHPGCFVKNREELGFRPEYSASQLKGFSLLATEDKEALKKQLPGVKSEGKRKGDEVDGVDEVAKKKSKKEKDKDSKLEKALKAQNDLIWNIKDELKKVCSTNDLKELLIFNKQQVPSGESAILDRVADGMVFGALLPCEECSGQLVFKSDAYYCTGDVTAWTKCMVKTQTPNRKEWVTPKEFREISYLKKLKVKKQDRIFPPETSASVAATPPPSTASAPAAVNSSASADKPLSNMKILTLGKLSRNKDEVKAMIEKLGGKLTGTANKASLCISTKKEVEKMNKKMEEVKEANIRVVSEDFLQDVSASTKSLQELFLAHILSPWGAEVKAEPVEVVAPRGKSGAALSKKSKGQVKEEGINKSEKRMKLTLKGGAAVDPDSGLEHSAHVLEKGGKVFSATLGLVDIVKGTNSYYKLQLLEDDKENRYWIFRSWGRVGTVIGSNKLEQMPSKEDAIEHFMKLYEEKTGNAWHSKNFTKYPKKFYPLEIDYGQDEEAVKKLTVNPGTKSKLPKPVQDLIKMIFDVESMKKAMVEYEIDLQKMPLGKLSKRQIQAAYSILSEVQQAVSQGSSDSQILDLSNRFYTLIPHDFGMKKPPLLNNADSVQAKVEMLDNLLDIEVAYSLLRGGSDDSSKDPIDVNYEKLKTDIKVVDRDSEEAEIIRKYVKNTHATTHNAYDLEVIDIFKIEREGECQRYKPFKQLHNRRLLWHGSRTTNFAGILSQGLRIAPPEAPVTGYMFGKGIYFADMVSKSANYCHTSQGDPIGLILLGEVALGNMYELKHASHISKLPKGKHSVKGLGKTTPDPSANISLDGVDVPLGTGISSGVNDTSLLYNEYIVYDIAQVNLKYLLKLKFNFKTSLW
The species entered for series [22] is Homo sapiens. The series is described as follows: Binding affinity to human telomeric 23-p G-quadruplex DNA assessed as increase in melting temperature up to 240 uM after 30 mins by CD spectra analysis.

Active and inactive are the calls of the source. The rule behind the calls is not given here.

For the compound `Cn1c(=O)c2cc(C(=O)NCCN3CCC(Cc4ccccc4)CC3)sc2c2ccccc21`, the ΔTm in [1] stood at 5.8 °C; in series [2], 5.5 °C; in series [3], 7 °C; in series [9] it was 4.5 °C. Besides, the result in series [4], in [5], in [6], in series [10], in [11] and in series [13] was Active. Also, the outcome in series [14] was Active. Moreover, the result in series [7] and in series [15] was inactive. For the same compound, the Kd in series [8] came out at 240 nM. In [12], the Activity result is “Non-Toxic”.

Turning to `Oc1nc(-c2ccc(C(F)(F)F)cc2)nc2c1CSCC2`, the result in [10] was inactive.

For `COC(=O)c1cc2[nH]c(=O)c3ccccc3c2s1`, the ΔTm in series [1] turned out to be 0.9 °C; in series [2], 0.9 °C; in series [3], 3 °C. The result in [10] was Active. In addition, the result in series [16] and in series [15] was inactive.

As to `COC1CCN(C(=O)c2cc(Cc3n[nH]c(=O)c4ccccc34)ccc2F)CC1`, the ΔTm in series [1] was found to be 0.1 °C; in [2], 1.3 °C; in series [3] it was 2.6 °C. For the same compound, in series [10], the result was inactive.

As to `O=c1[nH]c2sccc2c2ccccc12`, the outcome in [10], in series [11], in series [17] and in series [18] was inactive.

For the compound `CN1C(=O)C2C=C(C(=O)NCCN3CCC(Cc4ccccc4)CC3)SC2c2ccccc21` (stereo unspecified), the result in series [10], in series [13], in [17] and in series [18] was Active.

Take `COC(=O)c1cc2c(=O)n(C)c3ccccc3c2s1`: the values for the ΔTm in series [1], in series [2] and in [3] were 0.4 °C, 0.4 °C and 2.4 °C, respectively. For the same compound, the outcome in series [19], in series [16] and in series [15] was inactive. Besides, the result in series [10] was Active.

With `COC(=O)c1cc2c(=O)[nH]c3ccccc3c2s1`, the ΔTm in series [1] is 1.5 °C; in [2], 2.2 °C; in [3], 1.9 °C. Also, the outcome in series [10] and in [11] was Active. Besides, the Activity result in series [12] is recorded as “Non-Toxic”. Besides, the outcome in series [13] and in [15] was inactive.

In the case of `COC(=O)c1cc2c(s1)c1ccccc1c(=O)n2C`, the ΔTm was -0.8 °C in [1], 1.4 °C in series [2] and 1.4 °C in series [3]. Besides, the result in series [10] and in series [11] was Active. The Activity result in series [12] is “Non-Toxic”. The outcome in [13] and in [15] was inactive.

In the case of `O=C(NCCN1CCC(Cc2ccccc2)CC1)c1cc2[nH]c(=O)c3ccccc3c2s1`, the ΔTm in series [1] amounted to 0.7 °C; in [2], 2 °C; in [3], 4.2 °C. Further, the inhibition result in [20] was “Active”. For the same compound, the IC50 in [21] amounted to 223 nM. Moreover, the outcome in series [15] was inactive.

Consider `Cn1c(=O)c2ccccc2c2sc(C(=O)NCCN3CCC(Cc4ccccc4)CC3)cc21`, for which the ΔTm is 1.6 °C in series [1], 3 °C in series [2] and 10.5 °C in series [3]. Moreover, the result in series [22], in series [10], in series [11] and in series [13] was Active. The outcome in series [7] and in series [15] was inactive. Further, the Activity result in series [12] is “Non-Toxic”.

As for `Cc1nc2c(O)cccc2c(=O)[nH]1`, the ΔTm worked out at 0 °C in series [1], 1.1 °C in series [2] and 2.4 °C in series [3].

Regarding `O=C(NCCN1CCC(Cc2ccccc2)CC1)c1cc2c(=O)[nH]c3ccccc3c2s1`, the values for the ΔTm in [1], in series [2] and in series [3] were 0.3 °C, 2.6 °C and 7.7 °C, respectively. For the same compound, the result in [22], in series [10], in series [11] and in series [13] was Active. Further, the result in [7] and in series [15] was inactive. The Activity entry in series [12] is on record as “Non-Toxic”.
